In series [1] the test system is high fat+fructose (HF/HS) diet hamsters. The series can be described thus: 18-day oral dosing lipid study in HF/HS hamsters. The class given is in vivo, male Golden Syrian hamsters. The following applies: niacin 1200 mg/kg oral once daily 18 days, mean ± SD. As to the method:
We examined the effects of diet modulation on the lipid profile of male Syrian Golden hamsters. Hamsters were ordered from Charles River Labs (Wilmington, Mass.), and requested to be 111-120 g in weight (correspondingly 56-61 days old). Hamsters were kept in cages of 4-5 per cage, and maintained on a standard light cycle of 12 hours on/12 hours off. All diets were obtained from Dyets, Inc. (Bethlehem, Pa.). “Normal Diet” was a standard rodent chow, catalog #5001, produced into pellets. Water and this standard chow diet were available to this group of hamsters ad libitum. Food was added to cages as needed, but no less frequently than twice per week. “High Fat Diet” was the same standard rodent chow supplemented with the following: 11.5% corn oil, 11.5% coconut oil, 0.5% cholesterol, and 0.25% deoxycholate. This is also available directly from Dyets, Inc., as catalog #611201. Both diets were ordered in 10 kg batches and stored at 4° C. for durations of the experiments (4-8 weeks), and at −20° C. for longer storage (up to six months). Water and this high fat diet were available to this group of hamsters ad libitum. The “High Fat+Fructose” group was fed the same fat-supplemented chow as the “high fat diet” group (#611201), but water was supplemented with fructose to a final concentration of 10%. Fructose was supplied from Now Foods (catalog #6931) and distributed by Lucky Vitamin (catalog #WB48432). Fructose water was prepared by adding 400 g of fructose to 4 L of water and stirring at room temperature until dissolved. Fructose water was stored at 4° C. until use. When provided to hamsters, fructose water was kept in a water bottle in the hamster cages at room temperature, exactly as standard water was. Fructose water and high fat chow were provided to this group of hamsters ad libitum. All animals remained on their respective diets for 21 days.
To begin this experiment, hamsters were randomly assigned to groups defined by the diet modifications above. After a fixed time, blood was collected from hamsters (N=3-4) to determine the lipid contents of the plasma. Because of limitations in the ability to adequately collect blood from hamsters, all blood samples were obtained via a terminal cardiac puncture preceded by asphyxiation with carbon dioxide. Blood (approximately 2 mL volume) was collected with a 22 G needle into a 5 mL syringe and transferred to a K2EDTA tube. The samples were kept on ice until centrifugation (14,000 rpm for 10 minutes at 4° C.) to separate plasma. Plasma was then aliquoted to tubes for storage at −80° C. until analysis.
Lipid parameters were determined using commercially available kits from Wako USA (Richmond, Va.) according to manufacturer's directions.
Male Golden Syrian hamsters were purchased from Charles River Labs (111-120 g, 56-61 days) and acclimated to a high fat+fructose (herein, referred to as “HF/HS”) diet as described above for two weeks. Hamsters were assigned into cohorts by body weight after two weeks' acclimation to the diet. […] Hamsters were dosed once per day for a total of 18 days. All animals remained on the above-described HF/HS diet throughout the dosing period. Dosing solutions for each cohort were prepared for 7 days at a time, although enough was prepared to last for 8 days. Each solution was stored at room temperature between administrations. Cohorts were defined according to Table 2 below.

Series [2] can be described thus: Single oral dose pharmacokinetic comparison niacin, ARI-001, 2230C in wild type mice. The series is classed as in vivo, C57BL/6 mice. The conditions noted are these: single bolus oral gavage, mouse plasma; for AUC / Cmax / Tmax / half-life: C57BL/6; for half-life: read-out: half-life (t1/2) (converted). From the text: Compound 2230C has the structure
Series [3] is described as follows: Human clinical trial, single oral doses: serum concentration. The class given is in vivo. The conditions noted are these: in vivo, 1500 mg, read-out: Cmax. How it is done: Five periods of single dose escalation, with 8 subjects per cohort (6 drug: 2 placebo) involve a total 40 subjects. Appropriately blinded matching placebos are provided. Cohort 1 receives 500 mg of ARI-001 formulated as a single oral tablet, plus eleven placebo tablets; Cohort 2, […] of ARI-001, plus ten placebo tablets; Cohort 3, […] of ARI-001, plus eight placebo tablets; Cohort 4, […] of ARI-001, plus four placebo tablets; Corhort 5, […] of ARI-001. Placebo-only subjects take twelve placebo tablets. Each tablet is a compressed, film-coated tablet suitable for oral administration.
Pharmacokinetic samples are collected at 0-45 min pre-dose and at 0.5, 1, 1.5, 2, 4, 6, 8, 12, 24, 30 and 168 hours after dosing. […]
[…] […] Analysis of all samples is performed at a central laboratory.

For the compound `O=C(O)c1cccnc1` [Niacin, nicotinic acid], the HDL/TC in series [1] worked out at 0.17 ± 0.11. Besides, in series [1] (plasma), the “FFA (free fatty acids)” value is 1.82 ± 0.69 mEq/L, the HDL stood at 79 ± 26 mg/dL, the LDL stood at 170 ± 52 mg/dL and the “TG (triglycerides)” value is listed as 1555 ± 808 mg/dL. For the same compound, in series [2], the area under the curve (AUC) was determined as 11700 µM·h, the Cmax turned out to be 4090 µM, the Tmax came out at 0.5 h and the half-life is 1.75 h. In series [2], the “AUC (% Niacin)” value is 100 % Niacin, the “C24 h/Cmax” value came to 0.02% and the “Cmax (% Niacin)” value amounted to 100 % Niacin. The peak concentration (Cmax) in series [3] is ~30 µg/mL.

Turning to `O=C(O)c1ccc(CCN2CCCC2)nc1` [Compound 2230C], in series [2], the exposure (AUC) is 686 µM·h, the peak level (Cmax) was 126 µM, the Tmax stood at 0.31 h and the half-life was 3.47 h. Also, in series [2], the “AUC (% Niacin)” value amounted to 5.8 % Niacin, the “C24 h/Cmax” value was found to be 2.1%, the “Cmax (% Niacin)” value came out at 3.0 % Niacin and the Cmax/AUC0-24 is 0.18 h⁻¹.

In general, AUC refers to concentration integrated over time. Broadly, the Cmax is the highest concentration seen after dosing. By Tmax is commonly meant the time at which the peak concentration occurs.

For the origin of these results see patent US8937063B2 (Trustees of Tufts College, priority 2010, dated 2015).
